Assay results: US8399475B2, “Crystalline and amorphous forms of naltrexone hydrochloride” (Mallinckrodt LLC, priority 2007, dated 2013)

Assay: Solid-state stability / form conversion under wet or high humidity conditions

SMILES	humidity at which the form converts to Form II (exposure of solid to humidity)	stability under wet and/or high humidity environments (compared with non-hydrated forms)
Cl.O=C1CC[C@@]2(O)[C@H]3Cc4ccc(O)c5c4[C@@]2(CCN3CC2CC2)[C@H]1O5 [Form I, naltrexone hydrochloride]	above 70% RH.	–
Cl.O=C1CC[C@@]2(O)[C@H]3Cc4ccc(O)c5c4[C@@]2(CCN3CC2CC2)[C@H]1O5 [Form II, naltrexone hydrochloride]	–	more stable
